According to US4980377A, “1-(aminophenyl)-2-aminopropanone derivatives” (Laboratoire L. Lafon, priority 1984, dated 1990):
Entries after “also recorded” stand apart in the source; their conditions may differ.

Experiments:
CNS [1] = experiment: Neuropsychopharmacological profile as a whole; format: in vivo, mice and rats; conditions: for Peripheral α-adrenergic signs (mydriasis, salivation, lacrimation, exophthalmos): species and dose not stated
Experimental: (§1) In the neuropsychopharmacological study which follows, a solution of CRL 41 153 in distilled water (pH 1.5) was administered intraperitoneally in a volume of 20 ml/kg to male mice and 5 ml/kg to male rats.

mice [2] = experiment: Particular toxicity in grouped mice; conditions: mice
Experimental: The number of dead animals is noted after 1 hour, 2 hours, 3 hours, 4 hours and 24 hours.

mice [3] = experiment: Interaction with apomorphine in mice; format: in vivo, mouse; conditions: i.p.
Experimental: Groups of 6 mice receive CRL 41 153 0.5 hour before the subcutaneous injection of 1 or 16 mg/kg of apomorphine.

rats [4] = experiment: Interaction with apomorphine in rats; format: in vivo, rat; conditions: i.p.
Experimental: CRL 41 153 is administered to groups of 6 rats 0.5 hour before the subcutaneous injection of 0.5 mg/kg of apomorphine.

mice [5] = experiment: Spontaneous motility; format: in vivo, mouse; conditions: i.p.
Experimental: 0.5 hour after they have received CRL 41 153, the mice (6 per dose, 12 control animals) are placed in an actimeter, where their motility is recorded for 30 minutes.

mice [6] = experiment: Overall behavior and reactivities in mice; format: in vivo, mouse; conditions: dose not stated
Experimental: as §1
(§2) Groups of three animals are observed before and then 0.25 hour, 0.50 hour, 1 hour, 2 hours, 3 hours and 24 hours after the administration of CRL 41 153.

mice [7] = experiment: Motility reduced by hypoxic aggression; format: in vivo, mouse; conditions: i.p.
Experimental: Half an hour after they have received CRL 41 153, the mice (10 per dose, 20 control animals) are subjected to acute hypobaric anoxia [pressure reduction of 600 mm Hg (i.e. about 8×10^4 Pa) in 90 seconds; release of vacuum in 45 seconds] and are then placed in an actimeter, where their motility is recorded for 10 minutes.

mice [8] = experiment: Interaction with barbital; format: in vivo, mouse; conditions: i.p., barbital 220 mg/kg
Experimental: Half an hour after the administration of CRL 41 153, groups of 10 mice receive an intraperitoneal injection of barbital (220 mg/kg).

[9] = system: gravid White New Zealand female rabbits; experiment: Teratogenicity in gravid White New Zealand rabbits; format: in vivo, rabbit; conditions: day 5 to day 18 of gestation; for Affected foetuses, %: normal limit 1.5%
Method in brief: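 Fetuses harvested by cesarean on gestation day 29 were scored for number and for any malformation (limb blockade, anury, tail or skull defects, exencephaly).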

rats [10] = experiment: Overall behavior and reactivities in rats; format: in vivo, rat; conditions: dose not stated
Experimental: as §1, §2

[11] = system: nigrostriatal dopaminergic system; experiment: Interaction with alpha-methyltyrosine on stereotypies (difference from amphetamine); conditions: α-methyltyrosine (catecholamine synthesis blocked)
mice [12] = experiment: Four plate test, traction and electric shock; format: in vivo, mouse; conditions: i.p.
Experimental: The test is performed on groups of 10 mice 30 minutes after the administration of CRL 41 153.

mice [13] = experiment: Interaction with oxotremorine; format: in vivo, mouse; conditions: i.p.
Experimental: CRL 41 153 is administered to groups of 6 mice 0.5 hour before the intraperitoneal injection of 0.5 mg/kg of oxotremorine.

mice [14] = experiment: Interaction with reserpine; format: in vivo, mouse; conditions: i.p.
Experimental: Four hours after the intraperitoneal injection of 2.5 mg/kg of reserpine, groups of 6 mice receive CRL 41 153.

rats [15] = experiment: Interaction with amphetamine; format: in vivo, rat; conditions: i.p.
Experimental: Amphetamine (2 mg/kg) is injected intraperitoneally into groups of 6 rats 30 minutes after the administration of CRL 41 153. […] 4 mg/kg and 16 mg/kg, CRL 41 153 potentiates the intensity and duration of the stereotypies induced by amphetamine.

mice [16] = experiment: Behavioral despair; format: in vivo, mouse; conditions: forcibly immersed mice, i.p.
Source text: Half an hour after they have received CRL 41 153, groups of 6 mice are placed in a beaker filled with water to a height of 6 cm. The total period of immobility between the 2nd and 6th minutes following immersion is noted.

mice [17] = experiment: Motility reduced by habituation to the enclosure; format: in vivo, mouse; conditions: i.p.
Experimental: After they have stayed In the actimeters for 18 hours, (he mice (6 per dose, 12 control animals) receive CRL 41 153. They are immediately returned to their respective enclosures and, half an hour later, their motility is recorded for 30 minutes.

CNS [18] = experiment: Complementary tests by oral (gastric) administration; format: in vivo; conditions: gastric vs i.p.
mice [19] = experiment: Intergroup aggressiveness; format: in vivo, mouse; conditions: i.p.
Experimental: After they have stayed for 3 weeks in the two halves of a cage divided by an opaque partition, groups of 3 mice receive CRL 41 153. Half an hour later, the two groups from the same cage are brought together by removal of the partition, and the number of fights which occur in 10 minutes is noted.

mice [20] = experiment: Asphyxiant anoxia (gallamine triiodoethylate); format: in vivo, mouse; conditions: i.p., curarizing agent
Experimental: Groups of 10 mice receive CRL 41 153 half an hour before the intraperitoneal administration of 32 mg/kg of gallamine triiodoethylate (reference curarizing agent).

[21] = pH of solutions in distilled water; format: physicochemical
Experimental: The neuropsychopharmacological study was undertaken according to the procedures described above for CRL 41 153, CRL 41 213 being adminstered intraperitoneally, in solution in distilled water, in a volume of 20 ml/kg to male mice and a volume of 5 ml/kg to male rats, and the pH of the injected solution varying with the concentration of CRL 41 213 according to the data given in Table II below.

humans = experiment: Clinical study: vasodilator; format: in vivo, human
Source text: In the treatment of diseases associated with the blood circulation through the vessels.

dogs = experiment: Cardiovascular study in anesthetized dogs; format: in vivo, dog
Experimental: Two dogs (average weight: 14.1 kg), anesthetized with nembutal, receive CRL 41 194 by intraduodenal administration at successive doses of 0.1 mg/kg, 0.5 mg/kg, 1 mg/kg, 2.5 mg/kg, 5 mg/kg and 10 mg/kg (in solution in physiological solvent).
The blood pressure, the heart rate, the blood flow through the femoral artery, the blood flow through the vertebral artery and the rectal temperature are measured. The coloration of the skin and the coloration of the bile, collected by catheterization of the bile duct after ligature of the cystic duct, are observed.
4 dogs (average weight: 14 kg), anesthetized with nembutal, receive CRL 41 221 by intraduodenal administration at successive doses of 0.1 mg/kg, 0.5 mg/kg, 1 mg/kg, 2.5 mg/kg, 5 mg/kg and 10 mg/kg. The blood pressure, the heart rate, the blood flow through the femoral artery, the blood flow through the vertebral artery and the rectal temperature are measured. The coloration of the skin is observed.

CC(NC(C)(C)C)C(=O)c1ccc(N)cc1 (centres unmarked) [CRL 41 178]
Anticonvulsant effects (overall) (CNS [1]; conclusion of the tests): anticonvulsant effects | Antidepressant effects (overall) (CNS [1]; conclusion of the tests): more modest antidepressant effects; also recorded: antidepressant component | Stimulant effects (overall) (CNS [1]; conclusion of the tests): distinct stimulant effects; also recorded: behaves as a stimulant as from the weakest doses | α-adrenergic stimulant effects (overall) (CNS [1]; conclusion of the tests): moderate α-adrenergic stimulant effects | Peripheral α-adrenergic signs (mydriasis, salivation, lacrimation, exophthalmos) (CNS [1]): mydriasis (with neither piloerection nor salivation) | Particular toxicity to grouped mice (mice [2]): existence of a particular toxicity to grouped mice | Effect on hypothermia induced by apomorphine (mice [3]): antagonism of the hypothermia | Effect on stereotypies induced by apomorphine (rats [4]): potentiation of the effects of apomorphine and amphetamine in rats | Spontaneous motor activity (mice [5]): increase in the motor activity | Overall behavior: observed effects (summary) (mice [6]): excitation and hyperreactivity in mice and rats | Motor recovery of mice after hypobaric hypoxia (mice [7]): improvement in the motor recovery of mice whose activity has been depressed following hypobaric hypoxia | Duration of the sleep induced by barbital (mice [8]): antagonism of the sleep induced by barbital | Affected foetuses, number ([9]; 5 mg/kg daily): 1 | Total foetuses (live) ([9]; 5 mg/kg daily): 90 | Affected foetuses, % ([9]; 5 mg/kg daily): 1.11% | Affected foetuses, number ([9]; 10 mg/kg daily): 1 | Total foetuses (live) ([9]; 10 mg/kg daily): 83 | Affected foetuses, % ([9]; 10 mg/kg daily): 1.20% | Affected foetuses, number ([9]; 50 mg/kg daily): 1 | Total foetuses (live) ([9]; 50 mg/kg daily): 92 | Affected foetuses, % ([9]; 50 mg/kg daily): 1.10% | Overall behavior: observed effects (summary) (rats [10]): excitation and hyperreactivity in mice and rats | Stereotype movements (summary) (rats [10]): presence of stereotype movements | Effect of alpha-methyltyrosine on the stereotypies induced by the substance [11]: differs from amphetamine in the mechanism of the effects which cause stereotypies | Effect on convulsant effects of electric shock (mice [12]): at high doses, antagonism of the convulsant effects of electric shock | Effect on hypothermic action of oxotremorine (mice [13]): antagonism of the hypothermia | Effect on hypothermia induced by reserpine (mice [14]): antagonism of the hypothermia | Effect on ptosis induced by reserpine (mice [14]): slight antagonism of the ptosis induced by reserpine | Effect on stereotypies induced by amphetamine (rats [15]): potentiation of the effects of apomorphine and amphetamine in rats | Period of immobility due to despair (mice [16]): reduction in the period of immobility | Motor activity of mice accustomed to their enclosure (mice [17]): resumption in the activity of mice accustomed to their enclosure | Action on gastric (oral) administration compared with intraperitoneal (CNS [18]): same types of action as after intraperitoneal administration; also recorded: the antidepressant effects are apparently developed better by oral administration than by intraperitoneal administration

CCNC(C)C(=O)c1ccc(N)cc1 (centres unmarked) [CRL 41 225]
Number of fights / intergroup aggressiveness (mice [19]): at strong doses, a decrease in the number of fights | Antidepressant effects (overall) (CNS [1]; conclusion of the tests): antidepressant and stimulant properties | Stimulant effects (overall) (CNS [1]; conclusion of the tests): antidepressant and stimulant properties | α-adrenergic stimulant effects (overall) (CNS [1]; conclusion of the tests): an α-adrenergic stimulation component | Peripheral α-adrenergic signs (mydriasis, salivation, lacrimation, exophthalmos) (CNS [1]): at strong doses, by a reduction in the mydriasis and salivation | Time taken for convulsions to occur (mice [20]): a decrease in the time taken for convulsions and death to occur | Time taken for death to occur (mice [20]): a decrease in the time taken for convulsions and death to occur | Effect on hypothermia induced by apomorphine (mice [3]): antagonism of the hypothermia | pH ([21]; 0.1 g/liter in distilled water): 5.0 | pH ([21]; 0.2 g/liter in distilled water): 4.5 | pH ([21]; 0.4 g/liter in distilled water): 4.0 | pH ([21]; 0.8 g/liter in distilled water): 3.5 | pH ([21]; 2 g/liter in distilled water): 3.0 | pH ([21]; 3 g/liter in distilled water): 2.5 | pH ([21]; 13 g/liter in distilled water): 2.0 | pH ([21]; 50 g/liter in distilled water): 1.5 | pH ([21]; ≤0.05 g/liter in distilled water): 5.5 | Effect on stereotypies induced by apomorphine (rats [4]): potentiation of the stereotypies | Vasodilator in human clinical use (humans): beneficial vasodilating properties from the clinical point of view | Vasodilator (conclusion) (dogs): vasodiating properties | Spontaneous motor activity (mice [5]): an increase in the spontaneous motor activity of mice | Overall behavior: observed effects (summary) (mice [6]): excitation with hyperreactivity in mice and rats | Stereotype movements (summary) (mice [6]): the presence of stereotype movements in mice and rats | Motor recovery of mice after hypobaric hypoxia (mice [7]): improvement in the motor recovery | Duration of the sleep induced by barbital (mice [8]): a reduction in the duration of the sleep induced by barbital | Affected foetuses, number ([9]; 5 mg/kg daily): 0 | Total foetuses (live) ([9]; 5 mg/kg daily): 91 | Affected foetuses, % ([9]; 5 mg/kg daily): 0% | Affected foetuses, number ([9]; 10 mg/kg daily): 0 | Total foetuses (live) ([9]; 10 mg/kg daily): 95 | Affected foetuses, % ([9]; 10 mg/kg daily): 0% | Overall behavior: observed effects (summary) (rats [10]): excitation with hyperreactivity in mice and rats | Stereotype movements (summary) (rats [10]): the presence of stereotype movements in mice and rats | Effect on convulsant effects of electric shock (mice [12]): at strong doses, a decrease in the convulsant effects of electric shock | Number of punished passes in the four plate test (mice [12]): an increase in the number of punished passes in the 4 plate test on mice | Effect on hypothermic action of oxotremorine (mice [13]): antagonism of the hypothermia | Effect on trembling induced by oxotremorine (mice [13]): a decrease in the intensity of the trembling caused by oxotremorine | Effect on hypothermia induced by reserpine (mice [14]): antagonism of the hypothermia | Effect on ptosis induced by reserpine (mice [14]): a decrease in the ptosis induced by reserpine in mice | Effect on stereotypies induced by amphetamine (rats [15]): potentiation of the stereotypies | Period of immobility due to despair (mice [16]): a decrease in the period of immobility | Motor activity of mice accustomed to their enclosure (mice [17]): resumption in the motor activity of mice accustomed to their enclosure
